The values that follow come from patent US10113185B2, “Utilization of phosphoketolase in the production of mevalonate, isoprenoid precursors, and isoprene” (Danisco US Inc., priority 2011, dated 2018).

Like-named read-outs stand apart in the source and are kept apart here.

For data set [1], the target named is Lactobacillus plantarum phosphoketolase. Conditions: cited from earlier work.
The test system of data set [2] is Bifidobacterium longum BB536 phosphoketolase. To be noted: Grill et al. (1995), cited from earlier work.
Data set [3] has as its system Bifidobacterium animalis ATCC 25527 phosphoketolase. To be noted: Grill et al. (1995), cited from earlier work.
For data set [4], the system named is Bifidobacterium globosum ATCC 25864 phosphoketolase. To be noted: Grill et al. (1995), cited from earlier work.
Data set [5] deals with Bifidobacterium dentium ATCC27534 phosphoketolase. Conditions: Grill et al. (1995), cited from earlier work.
The test system of data set [6] is Leuconostoc oenos phosphoketolase. Conditions: Veiga-da-Cunha et al. (1993), cited from earlier work.
The test system of data set [7] is Enterococcus gallinarum phosphoketolase (E. gallinarum PKL), encoded by SEQ ID NO:17. The data set is described as follows: Kinetic analysis of purified E. gallinarum phosphoketolase (ferric hydroxamate assay, AcP formation). The data set is classed as biochemical. On the procedure:
The amino acid sequence of Enterococcus gallinarum PKL was obtained from GeneBank and was processed in GeneArt optimization software for optimized expression in E. coli. Two base pairs were added in front of the PKL gene to form a NcoI site and a Sad site was inserted just after the stop codon. The synthesized PKL gene was cloned into GeneArt kanamycin-resistant cloning plasmid. The E. gallinarum PKL gene (SEQ ID NO:17) was then subcloned into a BspHI/SacI-digested pTrcHis2B vector (Life Technologies, Carlsbad, Calif.) to form plasmid pCMP1321.
Cells were grown in LB medium with 50 ug/ml carbenecillin at 37 C prior to induction. […] For purification, E. gallinarum PKL cell pellets were resuspended in 50 mM MES pH 6.0, 50 mM NaCL, 0.5 mM AEBSF, 0.1 mg/ml DNaseI. […] Clarified lysate containing PKL from E. gallinarum was loaded onto a DEAE HiTrap FF column equilibrated in 50 mM MES, 50 mM NaCl, pH 6 and eluted with a gradient to 50 mM MES, 1M NaCl, pH 6. The resulting fractions were analyzed by SDS-PAGE. Fractions containing PKL were pooled and desalted using a G25 desalting column into 50 mM MES, 50 mM NaCL pH 6.0. Further purification was achieved using a MonoQ 10/100 GL column equilibrated in 50 mM MES, 50 mM NaCL, pH 6 with a salt gradient to 1M NaCl. Fractions containing PKL were pooled and analyzed by SDS PAGE, quantitation was achieved using A280 a molar extinction coefficient of 136980 determined by Vector NTI.
Time points were taken at various intervals. […] An AcP standard curve ranging between 12.5 and 0.2 mM was generated for quantitation.

The subject of data set [8] is Bifidobacterium breve phosphoketolase. To be noted: cited from earlier work.
For data set [9], the system named is Lactobacillus paraplantarum C7 phosphoketolase. Conditions: Jeong et al. (2007), cited from earlier work.
For data set [10], the target named is T1, Bifidobacterium longum phosphoketolase (B. longum PKL), SEQ ID NO: 4 (encoded by SEQ ID NO:3) (Bifidobacterium longum, UniProt A0ACD7USP0).
T1 sequence (A0ACD7USP0 1-825): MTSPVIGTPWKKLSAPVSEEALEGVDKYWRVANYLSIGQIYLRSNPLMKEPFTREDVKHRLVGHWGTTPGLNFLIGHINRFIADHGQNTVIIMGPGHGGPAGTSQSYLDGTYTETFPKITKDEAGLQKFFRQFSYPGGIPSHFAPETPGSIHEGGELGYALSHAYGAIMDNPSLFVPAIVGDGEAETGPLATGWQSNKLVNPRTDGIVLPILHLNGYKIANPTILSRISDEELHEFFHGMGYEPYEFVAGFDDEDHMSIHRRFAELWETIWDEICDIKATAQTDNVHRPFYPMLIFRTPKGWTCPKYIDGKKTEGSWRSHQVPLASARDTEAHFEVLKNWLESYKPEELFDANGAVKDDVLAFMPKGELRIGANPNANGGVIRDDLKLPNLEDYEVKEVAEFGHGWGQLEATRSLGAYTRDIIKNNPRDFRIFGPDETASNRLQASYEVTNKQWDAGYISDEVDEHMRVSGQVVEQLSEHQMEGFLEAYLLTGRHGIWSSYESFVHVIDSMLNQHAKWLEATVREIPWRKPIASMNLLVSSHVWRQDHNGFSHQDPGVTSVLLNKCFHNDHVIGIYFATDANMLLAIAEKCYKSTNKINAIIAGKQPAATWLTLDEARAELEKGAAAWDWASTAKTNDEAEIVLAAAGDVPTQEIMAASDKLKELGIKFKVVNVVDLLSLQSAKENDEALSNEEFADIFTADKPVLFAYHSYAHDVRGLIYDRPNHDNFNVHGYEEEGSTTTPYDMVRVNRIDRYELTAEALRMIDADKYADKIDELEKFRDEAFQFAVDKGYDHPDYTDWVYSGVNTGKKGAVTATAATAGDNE
Conditions: 37° C., pH 6, saturating Pi (20 mM), enzyme 0.25 μM, time measured 60.

For data set [11], the system named is Bifidobacterium lactis phosphoketolase. Conditions: Meile et al. (2001), cited from earlier work.
Substrate in data set [12]: O=P(O)(O)OC[C@H]1OC(O)(CO)[C@@H](O)[C@@H]1O
In words: purified protein, by the assay type. To be noted: other: 37° C., pH 6, saturating Pi (20 mM), enzyme 0.25 μM, time measured 60.

[13] abbreviates: 37° C., pH 6, saturating Pi (20 mM), enzyme 0.5 μM, time measured 30.

On to `O=C[C@H](O)[C@H](O)COP(=O)(O)O` [E4P, erythrose 4-phosphate], for which the Ki is 8 mM in [1] (for F6P as a substrate, read-out: Kis^E4P) and 4.4 mM in [1] (for F6P as a substrate, read-out: Kll^E4P).

The Vmax is the top rate of the reaction or transport when substrate is in excess. Broadly, the kcat is the number of substrate molecules converted per active site and unit of time at saturation. For `O=P(O)(O)OC[C@H]1OC(O)(CO)[C@@H](O)[C@@H]1O` (stereo partly drawn) [F6P, fructose 6-phosphate], the “kcat (F6P)” value in data set [2] was “kcat (F6P) = 39 s^−1”; in data set [3], “kcat (F6P) = 33 s^−1”; in [4] it was “kcat (F6P) = 40 s^−1”; in data set [5] it was “kcat (F6P) = 33 s^−1”; in data set [6], “kcat (F6P) = 0.2 s−1”; in [8] (Suzuki et al. (2010)), “kcat (F6P) = 22.4 s^−1”. The “kcat (F6P)” value in data set [9] is reported as “kcat(F6P) = 738 s^−1”; in data set [1] (Yevenes and Frey (2008)) it was “kcat(F6P) = 2.7 s^−1”; in data set [11], “kcat(F6P) = 8 s^−1”. Also, the Km was 26 mM in data set [2] (read-out: Km(F6P)); 11.5 mM in data set [3] (read-out: Km(F6P)); 12.5 mM in data set [4] (read-out: Km(F6P)); 23 mM in [5] (read-out: Km(F6P)); 22 mM in data set [6] (read-out: Km(F6P)); 2.86 mM in [7] (setting [13]). In addition, the Km in [8] (read-out: Km(F6P), Suzuki et al. (2010)) was 9.7 mM; in [9] (read-out: Km(F6P)) it was 5.1 mM; in data set [1] (read-out: Km(F6P), Yevenes and Frey (2008)), 24 mM; in data set [11] (read-out: Km(F6P)) it was 10 mM. Moreover, in data set [7] (setting [13]), the Vmax came to 0.71 µM/s. In addition, the turnover number (kcat) in [7] (setting [13]) was 1.4 s⁻¹; in [7] (saturating Pi) it was 1.4 s⁻¹; in data set [10], 16.6 s⁻¹.

`O=P(O)(O)O` [Pi, inorganic phosphate]: the Km was 1.2 mM in [8] (for F6P as a substrate, read-out: KmPi); 2.9 mM in [1] (for F6P as a substrate, read-out: Km(Pi)); 7.5 mM in [1] (for X5P as a substrate, read-out: Km(Pi)).

As to `O=C(CO)[C@@H](O)[C@H](O)COP(=O)(O)O` [X5P, xylulose 5-phosphate], the “kcat(X5P)” value is “kcat (X5P) = 3.5 s^−1” in data set [6]; “kcat (X5P) = 44.8 s^−1” in data set [8] (Suzuki et al. (2010)); “kcat(X5P) = 6.1 s^−1” in data set [1] (Yevenes and Frey (2008)); “kcat(X5P) = 42 s^−1” in [11]. Further, the Km was 1.6 mM in data set [6] (read-out: Km(X5P)); 5.81 mM in data set [7] (setting [13]); 3.6 mM in [1] (Yevenes and Frey (2008), read-out: Km(X5P)); 55 mM in [11] (read-out: Km(X5P)). Further, in data set [7] (setting [13]), the Vmax came to 2.18 µM/s. The kcat in data set [7] (setting [13]) and in [7] (saturating Pi) was 4.4 s⁻¹ throughout.

B1: Bifidobacterium longum phosphoketolase (B. longum PKL), SEQ ID NO: 4 (encoded by SEQ ID NO:3) (Bifidobacterium longum subsp. infantis ATCC 15697 = JCM 1222 = … (protein)
chain: T1 sequence (A0ACD7USP0 1-825)
Turning to B1, in data set [12], the Km is listed as 21.16 mM, the Vmax amounted to 265 µM/min and the kcat worked out at 16.6 s⁻¹.
